Source: patent US4517196A, “Tricyclic thiazolyloxamic acids and their derivatives, their preparation, and therapeutic agents containing these compounds” (BASF Aktiengesellschaft, priority 1981, dated 1985)

System: passive cutaneous anaphylaxis
Assay: antiallergic action, passive cutaneous anaphylaxis (PCA) in rats, oral
Format: in vivo, rat
Settings: for ED50: Rattus norvegicus, read-out: Inhibition of PCA, ED 50%; for times more effective than the comparative compound V1: administered orally; for Inhibition of PCA, relative effectiveness: relative to comparative compound V1 (1.00)
Procedure: The antiallergic action was tested against passive cutaneous anaphylaxis in rats.
Narcotized male rats (weighing from 100 to 140 g) are sensitized by administration of an intradermal injection (shaved skin) of 0.1 ml of an ovalbumin antiserum. After a sensitization period of about 48 hours, treatment is carried out by administering various dosages (10 animals/dose) of the test substances intraperitoneally or orally. 15 and 20 minutes after treatment, an anitgen/Evans blue mixture (10 mg/kg of ovalbumin in 2% strength Evans blue solution) is injected intravenously into the experimental animals. 30 minutes later, the animals are killed, and the back skin is peeled off and the diameter of the circular blue area on the inner surface is measured. The size of the colored spot in untreated control animals may be standardized. Antiallergic substances reduce the diameter of the colored spots, their reduction being dependent on the dose. The ED 50% is the dose which produces a 50% reduction in the diameter of the colored spot in comparison with control animals which have not been treated with the drug.

[1] = oral administration, rats, dose giving 50% reduction in diameter of colored spot vs untreated controls

O=C(O)C(=O)Nc1nc2c(s1)Cc1ccccc1-2 [Example 4, N-(Indeno[1,2-d]thiazol-2-yl)-oxamic acid]
ED50 [1]: 1.3 mg/kg | times more effective than the comparative compound V1: 6.6 times | Inhibition of PCA, relative effectiveness (oral administration, rats): 6.61

O=C(O)C(=O)Nc1nc2ccccc2s1 [Example V1, N-benzothiazol-2-yl oxamate, reference compound]
Inhibition of PCA, ED 50% [1]: > 8.60 mg/kg | Inhibition of PCA, relative effectiveness (oral administration, rats): 1.00

O=C(O)c1cc(=O)c2c(OCC(O)COc3cccc4oc(C(=O)O)cc(=O)c34)cccc2o1 [cromolyn, reference compound]
ED50 [1]: 100 mg/kg | oral effectiveness in doses up to 100 mg/kg (oral, doses up to 100 mg/kg, commercial preparation Intal): orally ineffective

CCOC(=O)C(=O)Nc1nc2c(s1)C(=O)c1ccccc1-2 [Example 2, Ethyl N-(8-oxoindeno[1,2-d]thiazol-2-yl)-oxamate]
ED50 [1]: 1.95 mg/kg | times more effective than the comparative compound V1: 4.4 times | Inhibition of PCA, relative effectiveness (oral administration, rats): 4.41

CCOC(=O)C(=O)Nc1nc2c(s1)Cc1ccccc1-2 [Example 1, Ethyl N-(indeno[1,2-d]thiazol-2-yl)-oxamate]
ED50 [1]: 1.48 mg/kg | Inhibition of PCA, relative effectiveness (oral administration, rats): 5.81
